Data published in US9708314B2, “Heterocyclic amide compound” (NISSAN CHEMICAL INDUSTRIES, LTD., priority 2013, dated 2017).

Tests used:
Type in all cases: in vivo
[1] = tested on: Echinochloa oryzacola Vasing.; test: Test Example 1: herbicidal activity, application before weed generation in submerged conditions; conditions: Application herbicide amount 320 g/ha; Seventeenth Table
How it was run: (§1)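 Pre-emergence application to water surface of submerged pots (4 cm depth, alluvial soil) on sowing day, with 2.5-leaf rice transplanted; emulsion diluted to g/ha rates. Grown in greenhouse at 25–30 °C; 0–5 herbicidal/crop-effect score after three weeks.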

Monochoria vaginalis = test: as above; conditions: Application herbicide amount 320 g/ha; Seventeenth Table
How it was run: as §1

Scirpus juncoides = test: as above; conditions: Application herbicide amount 320 g/ha; Seventeenth Table
How it was run: as §1

Alopecurus myosuroides = test: Test Example 4: herbicidal effect by application to foliage (diluvial soil, plastic box); conditions: foliage application, 320 g/ha
How it was run: (§2)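 Plants were grown in sterilized diluvial soil in a greenhouse at 25-30° C for 14 days, then sprayed on stems and leaves with water-diluted emulsion formulation at set rates in g/ha. Weed control and crop injury were scored 3 weeks after treatment on a 0-5 herbicidal-ratio scale, from 0 (≤5%) to 5 (≥90%).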

Amaranthus retroflexus = test: as above; conditions: foliage application, 320 g/ha
How it was run: as §2

Digitaria ciliaris = test: as above; conditions: foliage application, 320 g/ha
How it was run: as §2

Lolium multiflorum Lam. = test: as above; conditions: foliage application, 320 g/ha
How it was run: as §2

Setaria viridis = test: as above; conditions: foliage application, 320 g/ha
How it was run: as §2

Stellaria media = test: as above; conditions: foliage application, 320 g/ha
How it was run: as §2

SMILES	A: Echinochloa oryzicola Vasing. (herbicidal effect grade) [1]	C: Monochoria vaginalis (herbicidal effect grade) (Monochoria vaginalis)	B: Scirpus juncoides (herbicidal effect grade) (Scirpus juncoides)	J (Alopecurus myosuroides) herbicidal effect grade (Alopecurus myosuroides)	N (Amaranthus retroflexus) herbicidal effect grade (Amaranthus retroflexus)	F (Digitaria ciliaris) herbicidal effect grade (Digitaria ciliaris)	K (Lolium multiflorum Lam.) herbicidal effect grade (Lolium multiflorum Lam.)	G (Setaria viridis) herbicidal effect grade (Setaria viridis)	P (Stellaria media) herbicidal effect grade (Stellaria media)
COCCn1nnnc1NC(=O)c1ccc(C(F)(F)F)n2c(C(C)C)nnc12 [2-041]	5 (Herbicidal ratio of 90% or more (almost completely withered))	4 (Herbicidal ratio of 70% or more and less than 90%)	5 (Herbicidal ratio of 90% or more (almost completely withered))	3 (Herbicidal ratio of 40% or more and less than 70%)	4 (Herbicidal ratio of 70% or more and less than 90%)	4 (Herbicidal ratio of 70% or more and less than 90%)	3 (Herbicidal ratio of 40% or more and less than 70%)	3 (Herbicidal ratio of 40% or more and less than 70%)	5 (Herbicidal ratio of 90% or more (almost completely withered))
Cc1ccc(-c2nnc3c(C(=O)Nc4nnnn4C)ccc(C(F)(F)F)n23)cc1 [2-042]	5 (Herbicidal ratio of 90% or more (almost completely withered))	4 (Herbicidal ratio of 70% or more and less than 90%)	4 (Herbicidal ratio of 70% or more and less than 90%)	2 (Herbicidal ratio of 20% or more and less than 40%)	5 (Herbicidal ratio of 90% or more (almost completely withered))	5 (Herbicidal ratio of 90% or more (almost completely withered))	1 (Herbicidal ratio of 5% or more and less than 20%)	5 (Herbicidal ratio of 90% or more (almost completely withered))	3 (Herbicidal ratio of 40% or more and less than 70%)
Cn1nnnc1NC(=O)c1ccc(C(F)(F)F)n2c(-c3ccc(F)cc3)nnc12 [2-043]	5 (Herbicidal ratio of 90% or more (almost completely withered))	5 (Herbicidal ratio of 90% or more (almost completely withered))	5 (Herbicidal ratio of 90% or more (almost completely withered))	3 (Herbicidal ratio of 40% or more and less than 70%)	5 (Herbicidal ratio of 90% or more (almost completely withered))	5 (Herbicidal ratio of 90% or more (almost completely withered))	2 (Herbicidal ratio of 20% or more and less than 40%)	4 (Herbicidal ratio of 70% or more and less than 90%)	5 (Herbicidal ratio of 90% or more (almost completely withered))
COc1cccc(-c2nnc3c(C(=O)Nc4nnnn4C)ccc(C(F)(F)F)n23)c1 [2-044]	5 (Herbicidal ratio of 90% or more (almost completely withered))	5 (Herbicidal ratio of 90% or more (almost completely withered))	5 (Herbicidal ratio of 90% or more (almost completely withered))	2 (Herbicidal ratio of 20% or more and less than 40%)	5 (Herbicidal ratio of 90% or more (almost completely withered))	5 (Herbicidal ratio of 90% or more (almost completely withered))	2 (Herbicidal ratio of 20% or more and less than 40%)	4 (Herbicidal ratio of 70% or more and less than 90%)	4 (Herbicidal ratio of 70% or more and less than 90%)
